Data: patent publication US9073903B2, “Imidazole-2,4-dione inhibitors of casein kinase 1” (Jasco Pharmaceuticals, LLC, priority 2010, dated 2015)
Read-outs that look alike come from different tables or passages of the source.

Key:
MDA-MB-468 cells = experiment: Inhibition of MDA-MB-468 cells (MTS cell proliferation); assay type: cell-based; conditions: for OD value 1 / OD value 2: 490 nm; for OD value 1 / OD value 2 / inhibition at 0.4 µM / inhibition at 0.8 µM / inhibition at 1.6 µM / inhibition at 3.2 µM / inhibition at 6.25 µM / inhibition at 12.5 µM / inhibition at 25 µM / inhibition at 50 µM / inhibition at 100 µM: 72 h; for inhibition at 0.4 µM / inhibition at 0.8 µM / inhibition at 1.6 µM / inhibition at 3.2 µM / inhibition at 6.25 µM / inhibition at 12.5 µM / inhibition at 25 µM / inhibition at 50 µM / inhibition at 100 µM / IC50: Homo sapiens
Procedure: Inhibition of MDA-MB-468 Cells Cells: MDA-MB-468 cells, ATCC Passage unknown, Mycoplasma free. Medium: RPMI-1640 Medium (GIBCO Cat #22400121) supplemented with 10% fetal bovine serum (Hyclone Cat #SH30396.03). Seeding: 2,000 cells/well (100 ul) into 96-wells plate, incubated overnight at 37° C. in a humidified, 5% CO2 atmosphere. Treatment: Test compounds and Gemcitabine were prepared in a serial dilution (1:2) by culture medium. Fifty microliters (50 uL) of serially diluted solutions were added into each well. The final concentrations of the positive control and test compounds were shown in the graphs. The cells were incubated for 72 hours after addition of the test compounds. MTS: 15 uL of MTS solution (Promega Cat #G5430) was added into each well and incubated with cells for 4 hours at 37° C. in a humidified, 5% CO2 atmosphere. Measurement: Absorbance at 490 nm was measured using MD Spectramax Plus384 spectrophotometer. The regression curves were calculated by the GraphPad Prism 5 using “log(inhibitor) vs response—variable slope”.

DU145 cells = experiment: Inhibition of DU145 cells (MTS cell proliferation); assay type: cell-based; conditions: for inhibition at 0.4 µM / inhibition at 0.8 µM / inhibition at 1.6 µM / inhibition at 3.2 µM / inhibition at 6.25 µM / inhibition at 12.5 µM / inhibition at 25 µM / inhibition at 50 µM / inhibition at 100 µM / IC50: Homo sapiens, DU-145; for inhibition at 0.4 µM: 0.400 uM; for inhibition at 0.8 µM: 0.800 uM; for inhibition at 1.6 µM: 1.600 uM; for inhibition at 3.2 µM: 3.200 uM; for inhibition at 6.25 µM: 6.250 uM; for inhibition at 12.5 µM: 12.500 uM
Procedure: Inhibition of DU145 Cells Cells: DU145 cells, ATCC Passage unknown, Mycoplasma free. Medium: DMEM Medium (GIBCO Cat #11995073) supplemented with 10% fetal bovine serum (Hyclone Cat #SH30396.03). Seeding: 750 cells/well (100 μL) into 96-wells plate, incubated overnight at 37° C. in a humidified, 5% CO2 atmosphere. Treatment: Test compounds and Gemcitabine were prepared in a serial dilution (1:2) by culture medium. Fifty microliters (50 uL) of serially diluted solutions were added into each well. The final concentrations of the positive control and test compounds were shown in the graphs. The cells were incubated for 72 hours after addition of the test compounds. MTS: 15 uL of MTS solution (Promega Cat #G5430) was added into each well and incubated with cells for 4 hours at 37° C. in a humidified, 5% CO2 atmosphere. Measurement: Absorbance at 490 nm was measured using MD Spectramax Plus384 spectrophotometer. The regression curves were calculated by the GraphPad Prism 5 using “log(inhibitor) vs response—variable slope”.

[1] = 72 hours, replicate 1, read-out: % of inhibition 1
[2] = 72 hours, replicate 2, read-out: % of inhibition 2

Nc1ccn([C@@H]2O[C@H](CO)[C@@H](O)C2(F)F)c(=O)n1 [Gemcitabine]
OD value 1 (MDA-MB-468 cells; 0.400 μM, replicate 1): 0.313
OD value 2 (MDA-MB-468 cells; 0.400 μM, replicate 2): 0.337
OD value 1 (MDA-MB-468 cells; 0.800 μM, replicate 1): 0.275
OD value 2 (MDA-MB-468 cells; 0.800 μM, replicate 2): 0.310
OD value 1 (MDA-MB-468 cells; 1.600 μM, replicate 1): 0.201
OD value 2 (MDA-MB-468 cells; 1.600 μM, replicate 2): 0.264
OD value 1 (MDA-MB-468 cells; 3.200 μM, replicate 1): 0.151
OD value 2 (MDA-MB-468 cells; 3.200 μM, replicate 2): 0.192
OD value 1 (MDA-MB-468 cells; 6.250 μM, replicate 1): 0.101
OD value 2 (MDA-MB-468 cells; 6.250 μM, replicate 2): 0.105
OD value 1 (MDA-MB-468 cells; 12.500 μM, replicate 1): 0.066
OD value 2 (MDA-MB-468 cells; 12.500 μM, replicate 2): 0.053
OD value 1 (MDA-MB-468 cells; 25.000 μM, replicate 1): 0.033
OD value 2 (MDA-MB-468 cells; 25.000 μM, replicate 2): 0.035
OD value 1 (MDA-MB-468 cells; 50.000 μM, replicate 1): 0.064
OD value 2 (MDA-MB-468 cells; 50.000 μM, replicate 2): 0.064
OD value 1 (MDA-MB-468 cells; 100.000 μM, replicate 1): 0.034
OD value 2 (MDA-MB-468 cells; 100.000 μM, replicate 2): 0.007
inhibition at 0.4 µM (MDA-MB-468 cells; MDA-MB-468, 0.400 μM, replicate 1, read-out: % of inhibition 1): 6.01%
inhibition at 0.4 µM (MDA-MB-468 cells; MDA-MB-468, 0.400 μM, replicate 2, read-out: % of inhibition 2): 1.17%
inhibition at 0.8 µM (MDA-MB-468 cells; MDA-MB-468, 0.800 μM, replicate 1, read-out: % of inhibition 1): 17.4%
inhibition at 0.8 µM (MDA-MB-468 cells; MDA-MB-468, 0.800 μM, replicate 2, read-out: % of inhibition 2): 9.08%
inhibition at 1.6 µM (MDA-MB-468 cells; MDA-MB-468, 1.600 μM, replicate 1, read-out: % of inhibition 1): 39.6%
inhibition at 1.6 µM (MDA-MB-468 cells; MDA-MB-468, 1.600 μM, replicate 2, read-out: % of inhibition 2): 22.6%
inhibition at 3.2 µM (MDA-MB-468 cells; MDA-MB-468, 3.200 μM, replicate 1, read-out: % of inhibition 1): 54.7%
inhibition at 3.2 µM (MDA-MB-468 cells; MDA-MB-468, 3.200 μM, replicate 2, read-out: % of inhibition 2): 43.6%
inhibition at 6.25 µM (MDA-MB-468 cells; MDA-MB-468, 6.250 μM, replicate 1, read-out: % of inhibition 1): 69.7%
inhibition at 6.25 µM (MDA-MB-468 cells; MDA-MB-468, 6.250 μM, replicate 2, read-out: % of inhibition 2): 69.1%
inhibition at 12.5 µM (MDA-MB-468 cells; MDA-MB-468, 12.500 μM, replicate 1, read-out: % of inhibition 1): 80.2%
inhibition at 12.5 µM (MDA-MB-468 cells; MDA-MB-468, 12.500 μM, replicate 2, read-out: % of inhibition 2): 84.4%
inhibition at 25 µM (MDA-MB-468 cells; MDA-MB-468, 25.000 μM, replicate 1, read-out: % of inhibition 1): 90.1%
inhibition at 25 µM (MDA-MB-468 cells; MDA-MB-468, 25.000 μM, replicate 2, read-out: % of inhibition 2): 89.6%
inhibition at 50 µM (MDA-MB-468 cells; MDA-MB-468, 50.000 μM, replicate 1, read-out: % of inhibition 1): 80.8%
inhibition at 50 µM (MDA-MB-468 cells; MDA-MB-468, 50.000 μM, replicate 2, read-out: % of inhibition 2): 81.1%
inhibition at 100 µM (MDA-MB-468 cells; MDA-MB-468, 100.000 μM, replicate 1, read-out: % of inhibition 1): 89.8%
inhibition at 100 µM (MDA-MB-468 cells; MDA-MB-468, 100.000 μM, replicate 2, read-out: % of inhibition 2): 97.8%
IC50 (MDA-MB-468 cells; MDA-MB-468, Table 17, read-out: MDA-MB-468* 50% inhibition concentration): 3340 nM
IC50 (MDA-MB-468 cells; Table 26, MDA-MB-468, 72 hours, read-out: 50% viability conc.): 3340 nM
IC50 (MDA-MB-468 cells; Table 26, MDA-MB-468, 72 hours, read-out: IC50): 2530 nM
Maximal inhibition % (MDA-MB-468 cells; Table 26, MDA-MB-468, 72 hours): 93.83%
inhibition at 0.4 µM (DU145 cells; [1]): 17.4%
inhibition at 0.4 µM (DU145 cells; [2]): 15.6%
inhibition at 0.8 µM (DU145 cells; [1]): 35.2%
inhibition at 0.8 µM (DU145 cells; [2]): 32.9%
inhibition at 1.6 µM (DU145 cells; [1]): 59%
inhibition at 1.6 µM (DU145 cells; [2]): 54.3%
inhibition at 3.2 µM (DU145 cells; [1]): 95.5%
inhibition at 3.2 µM (DU145 cells; [2]): 96.2%
inhibition at 6.25 µM (DU145 cells; [1]): 96.8%
inhibition at 6.25 µM (DU145 cells; [2]): 96.2%
inhibition at 12.5 µM (DU145 cells; [1]): 96.6%
inhibition at 12.5 µM (DU145 cells; [2]): 97.3%
inhibition at 25 µM (DU145 cells; [1]): 97%
inhibition at 25 µM (DU145 cells; [2]): 96.2%
inhibition at 50 µM (DU145 cells; [1]): 97.4%
inhibition at 50 µM (DU145 cells; [2]): 98.9%
inhibition at 100 µM (DU145 cells; [1]): 97.9%
inhibition at 100 µM (DU145 cells; [2]): 97.2%
IC50 (DU145 cells; Table 17, read-out: DU145* 50% inhibition concentration): 1280 nM
IC50 (DU145 cells; Table 26, DU145, 72 hours, read-out: 50% viability conc.): 1280 nM
IC50 (DU145 cells; Table 26, DU145, 72 hours, read-out: IC50): 1170 nM
Maximal inhibition % (DU145 cells; Table 26, DU145, 72 hours): 97.55%
